These are literature values, as cited in patent EP1156371A2, “Replenishing method of planographic printing plate developer” (FUJI PHOTO FILM CO., LTD., priority 2000, dated 2001).

The term pKa denotes the negative logarithm of the acid dissociation constant.

For the data set the following is noted: dissociation constant of weak acid, aqueous solution.
With `CC(P(=O)(O)O)P(=O)(O)O` [1,1-ethylidene diphosphonic acid], the pKa is 11.54.
For the compound `Oc1ccc(O)c(O)c1` [1,2,4-trihydroxybenzene], the pKa is listed as 11.82.
For `CC(O)(P(=O)(O)O)P(=O)(O)O` [1-hydroxy 1-ethylidene diphosphonate], the pKa is 11.52.
On to `OCC(F)(F)C(F)F` [2,2,3,3-tetrafluoropropanol-1], for which the pKa is on record as 12.74.
For the compound `CCC(C)=NO` [2-butanone oxime], the pKa is given as 12.45.
Take `ON=Cc1ccccc1O` [2-hydroxybenzaldehyde oxime]: the pKa was 12.10.
On to `O=C(O)c1ccc(O)c(O)c1` [3,4-duhydroxybenzoic acid], for which the pKa is 11.94.
Consider `O=C(O)c1cc2ccccc2cc1O` [3-hydroxy-2-naphthoic acid], for which the pKa is 12.84.
On to `CC(=NO)c1ccccc1` [acetophenone oxime], for which the pKa is recorded as 11.35.
Regarding `CC(C)=NO` [acetoxime], the pKa was 12.42.
Regarding `Nc1ncnc2c1ncn2[C@@H]1O[C@H](CO)[C@@H](O)[C@H]1O` [adenosine], the pKa was 12.56.
As to `O=C1CC(=O)NC(=O)N1` [barbituric acid], the pKa is given as 12.5.
In the case of `c1ccc2[nH]cnc2c1` [benzimidazole], the pKa is 12.86.
Take `Oc1ccccc1O` [catechol]: the pKa is 12.6.
With `CC(=NO)C(C)=NO` [dimethyl glyoxime], the pKa is on record as 11.9.
For `NC(=N\O)/C(N)=N/O` [ethanediamide dioxime], the pKa is on record as 11.37.
As for `Oc1ccc(O)cc1` [hydroquinone], the pKa is listed as 11.56.
For `OC[C@H]1O[C@@H](n2cnc3c(O)ncnc32)[C@H](O)[C@@H]1O` [inosine], the pKa is on record as 12.5.
As for `CC(C)(P(=O)(O)O)P(=O)(O)O` [isopropylidene diphopshonic acid], the pKa was 12.10.
Consider `Cc1cccc(O)c1` [m-cresol], for which the pKa was 10.09.
Turning to `Cc1ccccc1O` [o-cresol], the pKa was 10.33.
`O=Cc1ccccn1` [pyridine-2-aldehyde]: the pKa is 12.68.
On to `O=Cc1ccncc1` [pyridine-4-aldehyde], for which the pKa was 12.05.
Consider `Oc1cccc(O)c1O` [pyrogallol], for which the pKa was 11.34.
Turning to `Oc1cccc(O)c1` [resorcinol], the pKa was 11.27.
As for `O=C(O)c1cc(S(=O)(=O)O)ccc1O` [sulfosalicylic acid], the pKa is reported as 11.7.
Regarding `NC(=S)c1ccccc1` [thiobenzamide], the pKa is recorded as 12.8.
On to picoline thioamide, for which the pKa is on record as 12.55.
